Legend:
[1] = system: HBCx-41 in vitro cultured dissociated cells; experiment: In vitro treatment of ex vivo cultured dissociated cells with anti-cancer drugs, WST-1 viability; format: cell-based, human; conditions: HBCx-41 dissociated cells, incremental concentrations, 72 h incubation
Description: In vitro treatments with anti-cancer drugs were performed in flat bottomed 96 well microplates. Equal number of viable cells (40 000) were distributed in each well and allowed for attachment for 3 days. […] After 72 h incubation in presence or absence of compounds, WST-1 (based on the cleavage of the tetrazolium salt by respiratory mitochondrial enzyme, Roche diagnostic) was added and incubated following manufacturer instructions. Optic density was read on a microplate reader at 450 nm. A sigmoid analytical curve gave the 50% inhibitory concentration (IC50).

line coming from HBCx-4A [2] = experiment: Cisplatin dose response kinetic, cell viability (OD 450 nm); format: cell-based, human; conditions: HBCx-4A line on plastic
Description: FIG. 16A: cisplatine dose response kinetic
from top to bottom: white circle: no treatment (no tt), white square: 35 μM, white triangle (top point): 45 μM, white triangle (bottom point): 55 μM, white diamond: 65 μM, black circle: […]

line coming from HBCx-4A [3] = experiment: RBD expression after in vitro cisplatin (MFI, flow cytometry); format: cell-based, human
Description: FIG. 16B: PERV-A.RBD • x-axis: time in hours • y-axis: MFI (mean of fluorescent intensity)
(§1) For metabolite transporters labelling, 200 000 to 500 000 viable cells were incubated at 37° C. in RBD premix consisting in 3 μl of a RBD mouse Fc tagged plus 3 μl of a RBD rabbit Fc tagged diluted in 50 μl of CO2 independent medium and washed once before secondary staining with fluorescent conjugated antibodies against mouse (goat anti-mouse AF488, Cell Signalling Technology) and rabbit (goat anti-rabbit AF647, Cell Signalling Technology). Rat anti-mouse Pan H-2 added in a third step allowed for the discrimination between human and mouse cells.

[4] = system: breast tumor xenograft (HBCx-4A, HBCx-16, HBCx-8, HBCx-17); experiment: Cisplatin treatment in four models of breast tumor xenograft, RBD expression; format: in vivo, mouse
From the text: The four models are the followings: HBCx-4A (non-responsive), HBCx-16 (responsive), HBCx-8 (responsive), HBCx-17 (responsive). […] Left histograms (FeLVC.RBD): from left to right HBCx-4A, HBCx-16, HBCx-8, HBCx-17. Right histograms (BLV.RBD): from left to right HBCx-4A, HBCx-16, HBCx-8, HBCx-17.

line coming from HBCx-4A [5] = experiment: Everolimus dose response kinetic, WST (OD 450 nm); format: cell-based, human
Description: (§2) FIG. 17A to 17H presents the in vitro effect of everolimus on a line coming from HBCx-4A and put on plastic in function of time.
FIG. 17A: everolimus dose response kinetic
from top to bottom: no treatment (nott), black circle: 0.001 μM, white square: 0.1 μM, black triangle: 10 μM, bottom white square: 50 μM.
At 10 μM, the dose of everolimus is a cytotoxic dose. • x-axis: time in hours • y-axis: WST (OD 450 nm)

line coming from HBCx-4A [6] = experiment: RBD expression after in vitro everolimus (MESF, flow cytometry); format: cell-based, human; conditions: 0, 1, 100, 1000 nM; 6, 24, 72 h
Description: as §2
FIGS. 17B and 17C: 6 hours after everolimus.
FIGS. 17D and 17E: 24 hours after everolimus.
FIGS. 17F to 17H: 72 hours after everolimus. […]
High sensitivity is a challenge in flow cytometry. […] To visualize thin variation of expression level in multiple channel protocol, we need one unique unit, as fluorescence arbitrary units read on the same cytometer from two different fluorophores in their own channel cannot be confronted. Molecule of Equivalent Soluble Fluorochrome (MESF) is given by regression of arbitrary fluorescence measured versus standardisation beads coated with known amounts of same fluorochrome used in cells staining (AF647 and AF488 MESF quantum beads, BangsLab) acting as intra- and interexperiments calibrator. Measured fluorescence depends on lasers power, photomultiplicator tube settings, pH of staining medium. Fluorescence measured is proportional to the number of fluorochromes linked to the antibody used, itself correlated to the number of antibody bound to specific sites. […] For RBDs, quantification of non-specific signal was determined using secondary conjugated antibody alone.

[7] = system: breast tumor xenograft (HBCx-3); experiment: Everolimus treatment in breast tumor xenograft, RBD expression; format: in vivo, mouse; conditions: HBCx-3, 2.5 mg/kg i.p.
Description: FIG. 12 presents the effect of an everolimus treatment (2.5 mg/kg, i.p.—intraperotoneal) in a model of breast tumor xenograft (HBCx-3) known to be responsive to everolimus treatment at short times.
Mice of example 1 have been used.
Four RBDs are studied: • Circle: Xeno.RBD • Triangle: Ampho.RBD • Diamond: FeLVC.RBD • Square: RD114.RBD
The human breast cancer specimens were obtained with informed consent from the patients undergoing surgery. Fresh tumor fragments were grafted into the interscapular fat pad of 8-12 week old female Swiss nude mice, under avertin anaesthesia. Mice were maintained in specific pathogen-free animal housing (Institut Curie, Paris, France) and received estrogen (17 mg/ml) diluted in drinking water. Xenografts appeared at the graft site 2 to 8 months after initial transplantation. They were subsequently transplanted from mouse to mouse and formally established since third in vivo passage (Marangoni, Elisabetta A new model of patient tumor-derived breast cancer xenografts for preclinical assays Clin Cancer Res. 2007 Jul. 1; 13(13):3989-98). All the experiments were performed in accordance with the UKCCCR guidelines about animal ethics in neoplasia research (British Journal of Cancer (2010) 102, 1555-1577). Present experiments were all performed in well-established tumor models and required a minimal tumor size of 600 mm^3 to collect enough cellular material. In all cases, particular attention through careful clinical examination has been paid to ensure that the recipient mice remained in a general good health to avoid as far as possible necrotic tumors. All tumors were aseptically excised from ethically sacrificed mice with autoclaved surgical material. NEDB and culture media w/o FCS are both equivalent for a short period before processing.
as §1

[8] = system: breast tumor xenograft (HBCx-3); conditions: HBCx-3, short times; cited from earlier work
Glut1 = target: T1, Glut1 (human, UniProt P11166 1-492); experiment: flow cytometry, RBD-Fc labelling of viable human breast cancer xenograft cells (HBCx-3, -4A, -8, -24, -30), read out in MESF
T1 construct: whole, on cells; also called glucose transporter GLUT-1
T1 sequence: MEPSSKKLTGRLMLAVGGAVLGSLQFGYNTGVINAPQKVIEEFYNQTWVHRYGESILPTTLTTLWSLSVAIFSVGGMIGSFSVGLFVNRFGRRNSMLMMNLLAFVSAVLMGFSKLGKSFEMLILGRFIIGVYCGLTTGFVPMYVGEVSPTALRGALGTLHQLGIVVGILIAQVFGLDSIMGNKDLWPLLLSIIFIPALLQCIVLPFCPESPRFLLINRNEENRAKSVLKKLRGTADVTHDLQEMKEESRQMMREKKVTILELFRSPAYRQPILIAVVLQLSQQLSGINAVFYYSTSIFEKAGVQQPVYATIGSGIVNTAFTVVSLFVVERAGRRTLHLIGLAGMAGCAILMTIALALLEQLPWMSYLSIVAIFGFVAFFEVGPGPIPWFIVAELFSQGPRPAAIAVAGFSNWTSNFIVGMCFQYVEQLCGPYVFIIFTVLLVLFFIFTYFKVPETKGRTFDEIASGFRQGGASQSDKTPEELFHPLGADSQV

PiT1 = target: T2, PiT1 (human, UniProt Q8WUM9 1-679); experiment: as above
T2 construct: whole, on cells
T2 sequence: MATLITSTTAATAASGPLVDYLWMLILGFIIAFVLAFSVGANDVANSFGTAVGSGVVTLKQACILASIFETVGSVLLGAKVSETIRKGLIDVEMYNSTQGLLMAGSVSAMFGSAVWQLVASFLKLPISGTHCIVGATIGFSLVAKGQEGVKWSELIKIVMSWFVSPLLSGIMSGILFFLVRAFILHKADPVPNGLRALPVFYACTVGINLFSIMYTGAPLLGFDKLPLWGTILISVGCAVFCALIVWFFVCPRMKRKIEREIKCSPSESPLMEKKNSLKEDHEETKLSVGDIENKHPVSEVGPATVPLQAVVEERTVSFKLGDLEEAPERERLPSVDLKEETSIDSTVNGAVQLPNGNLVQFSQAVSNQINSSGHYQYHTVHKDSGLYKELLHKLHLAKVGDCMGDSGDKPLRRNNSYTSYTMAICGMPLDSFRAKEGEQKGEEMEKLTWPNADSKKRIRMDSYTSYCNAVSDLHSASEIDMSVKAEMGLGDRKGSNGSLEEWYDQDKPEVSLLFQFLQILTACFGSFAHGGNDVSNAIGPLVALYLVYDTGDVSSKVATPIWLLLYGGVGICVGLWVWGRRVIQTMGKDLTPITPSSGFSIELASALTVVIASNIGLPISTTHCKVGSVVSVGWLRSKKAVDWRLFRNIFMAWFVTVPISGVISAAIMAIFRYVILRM

[9] = 24 and 48 h, both doses (50 and 100 μM)
[10] = everolimus, HBCx-4A line on plastic

Molecule: CC(=O)O[C@@]12CO[C@@H]1C[C@H](O)[C@@]1(C)C(=O)[C@H](O)C3=C(C)[C@@H](OC(=O)[C@H](O)[C@@H](NC(=O)OC(C)(C)C)c4ccccc4)C[C@@](O)([C@@H](OC(=O)c4ccccc4)[C@H]21)C3(C)C [docetaxel, Docetaxel]
- toxicity (cell viability %) [1]: dose dependent toxicity

Molecule: N.N.[Cl][Pt][Cl] [cisplatin, Cisplatin]
- toxicity (cell viability %) [1]: dose dependent toxicity
- cytostatic dose (line coming from HBCx-4A [2]): 55 µM
- AmphoMLV.RBD expression at 100 μM compared with 50 μM (line coming from HBCx-4A [3]; 100 μM vs 50 μM): higher than at 50 μM
- RD114.RBD expression at 100 μM compared with 50 μM (line coming from HBCx-4A [3]; 100 μM vs 50 μM): higher than at 50 μM
- expression of AmphoMLV.RBD (MFI) (line coming from HBCx-4A [3]; [9]): increased
- expression of RD114.RBD (MFI) (line coming from HBCx-4A [3]; [9]): increased
- expression of PERV-A.RBD (MFI) (line coming from HBCx-4A [3]; 48 h, both doses (50 and 100 μM)): increased
- response of the model to treatment ([4]; HBCx-4A, 6 mg/kg i.p.): non-responsive
- response of the model to treatment ([4]; HBCx-8, 6 mg/kg i.p.): responsive
- response of the model to treatment ([4]; HBCx-16, 6 mg/kg i.p.): responsive
- response of the model to treatment ([4]; HBCx-17, 6 mg/kg i.p.): responsive
- expression of FeLVC.RBD ([4]; non responsive model (HBCx-4A), 72 h post treatment, 6 mg/kg i.p.): increase
- expression of BLV.RBD ([4]; responsive and non responsive models, 72 h post treatment, 6 mg/kg i.p.): no difference
- expression of FeLVC.RBD ([4]; responsive model HBCx-16, 72 h post treatment, 6 mg/kg i.p.): decrease

Molecule: CO[C@H]1C[C@@H]2CC[C@@H](C)[C@@](O)(O2)C(=O)C(=O)N2CCCC[C@H]2C(=O)O[C@H]([C@H](C)C[C@@H]2CC[C@@H](OCCO)[C@H](OC)C2)CC(=O)[C@H](C)/C=C(\C)[C@@H](O)[C@@H](OC)C(=O)[C@H](C)C[C@H](C)/C=C/C=C/C=C/1C [everolimus]
- effect on the line at 0.001 μM (line coming from HBCx-4A [5]; everolimus 0.001 μM): proliferation of the line
- cytostatic dose (line coming from HBCx-4A [5]; [10]): 0.1 µM
- cytotoxic dose (line coming from HBCx-4A [5]; [10]): 10 µM
- response of RBDs (MESF) (line coming from HBCx-4A [6]): time and dose dependant
- variation of Ampho.RBD expression [7]: vary later
- variation of FeLVC.RBD expression [7]: vary at the beginning of the treatment
- variation of RD114.RBD expression [7]: higher than the one of Ampho
- variation of Xeno.RBD expression [7]: vary at the beginning of the treatment
- expression of RBDs with the treatment ([7]; Xeno, Ampho, FeLVC, RD114 RBDs): varies significantly
- response of the model to treatment [8]: responsive

B1: H2.RBD.mFC immunoadhesin (HTLV-2 SU receptor binding domain fused to mouse IgG Fc) (Fc fusion)
chain: QQSRCTLTVGISSYHSSPCSPTQPVCTWNLDLNSLTTDQRLHPPCPNLITYSGFHKTYSLYLFPHWIKKPNRQGLGYYSPSYNDPCSLQCPYLGCQSWTCPYTGPVSSPSWKFHSDVNFTQEVSQVSLRLHFSKCGSSMTLLVDAPGYDPLWFITSEPTQ
notes: also called HTLV-2.RBD-Mfc; RBD derived from HTLV-2; not shown: mouse IgG Fc fragment
- binding result (Glut1): binds

B2: Ko.RBD.mFC immunoadhesin (KoRV SU receptor binding domain fused to mouse IgG Fc) (Fc fusion)
chain: NQQHNNPHQPMTLTWQVLSQTGSVVWEKKAVEPPWTWWPSLEPDVCALVAGLESWDIPELTASASQQARPPDSNYEHAYNQITWGTLGCSYPRARTRIARSQFYVCPRDGRSLSEARRCGGLESLYCKEWGCETAGTAYWQPRSSWDLITVGQGHPTGTCERTGWCNPLKIEFTEPGKRFRNWLQGRTWGLRFYVTGHPGVQLTIRLVITSPPPVVVG
notes: also called KoRV.RBD-Mfc; KoRV.RBD.MFC; not shown: mouse IgG Fc fragment
- binding result (PiT1): binds
